The results in this text go back to patent publication US7642367B2, “Diamino-functional chalcones” (Lica Pharmaceuticals A/S, priority 2002, dated 2010).

For orientation: IC50 means the point on the concentration scale where inhibition reaches its midpoint. A high value points to a need for much substance. A word on the Solubility: it is the concentration that dissolves in the medium under given conditions. One may read the MIC as the smallest concentration in the dilution series that meets the test's criterion for growth inhibition. Lower therefore signals a more susceptible organism.

≈ marks a conversion by molar mass, not a printed value.

Series [1] concerns Bacteroides fragilis, Clostridium perfringens, Clostridium difficele. It is filed as cell-based. Conditions: single concentration of compound (100 μM).
The test system of a further series is L. major promastigotes. Description: Leishmania promastigote assay (3H-thymidine).
A short description of series [2]: Determination of solubility in phosphate buffer pH 7.4. The following applies: aqueous buffer at pH 7.4. The class given is physicochemical. The procedure:
Solubility of the compounds was determined by preparing a saturated solution of compound in 0.3 M phosphate buffer (pH 7.4±0.3) in a brown glass tube. The suspensions were rotated slowly for 24 hours. Aliquots were centrifuged for 10 minutes at 14.000 rpm and supernatants were diluted in 40% (v/v) acetonitrile in water prior to HPLC analysis. Concentrations of analytes were quantified against a standard curve and used as term of solubility.
The HPLC-UV method used for the assessment of solubility is the same as used in the in vitro metabolism assay.

For series [3], the system named is Staphylococcus aureus ATCC29213. Description: MIC determination in broth microdilution assay. Background: In broth dilution the organism is exposed to a series of concentrations in liquid medium.
The subject of series [4] is Staphylococcus aureus ATCC33591 (resistant to methicillin). Description: MIC determination in broth microdilution assay.
Series [5] deals with Staphylococcus intermedius #2357 (clinical isolate). Description: MIC determination in broth microdilution assay.
Series [6] concerns Enterococcus faecalis ATCC29212. Description: MIC determination in broth microdilution assay.
The test system of series [7] is Enterococcus faecium #17501 (vancomycin-resistant clinical isolate). Description: MIC determination in broth microdilution assay.
The test system of series [8] is Streptococcus pneumoniae #998 (clinical isolate). Description: MIC determination in broth microdilution assay.
A further series concerns Eschericia coli ESS. Description: MIC determination in broth microdilution assay. The following applies: H: Eschericia coli ESS; NA: no activity.
Series [9] can be described thus: Determination of metabolic stability (liver microsomes). The following applies: rat liver microsomes, 20 μM, 15 min at 37° C. It is filed as in vitro ADME, Wistar rat. As for the experimental part: incubations were performed with Wistar rat liver microsomes (0.25 mg/ml) in 2% sodium bicarbonate solution. NADP (0.13 mg/ml), glucose-6-phosphate (0.63 mg/ml) and glucose-6-phosophate dehydrogenase (0.38 units/ml) were used as NADPH generation system and UDPGA (0.48 mg/ml) was added to include the phase II reaction, glucuronic acid conjugation, in the assay. After 5 minutes of pre-incubation the reaction was started by addition of the test article to give a final concentration of 20 μM. Samples were incubated for 15 min at 37° C. and the reactions were terminated by addition of equal volumes of acetonitrile. Blank incubations were performed at the same concentration but without addition of microsomes. Both blank and microsome-containing samples were made in replicats of three. Prior to analysis samples were centrifuged for 10 min. at 3500 rpm, HPLC system:
Initial conditions were 40% mobile phase A (acetonitrile) and 60% mobile phase B (10 mM ammonium acetate pH 9.5). During the first 20 minutes, the mobile phase was changed via a linear gradient to 90% A and 10% B. This was followed by a 5 minutes linear gradient to initial conditions, which were maintained for 5 min. The flow rate was 0.20 ml/min and injection volume 10 μl.
A general note: Liver microsomes are a subcellular fraction often used to study metabolism.

Setting [10] is: A: Staphylococcus aureus ATCC29213, NA: no activity.
The mark [11] stands for this setting: B: Staphylococcus aureus ATCC33591 (resistant to methicillin), NA: no activity.
The mark [12] stands for this setting: C: Staphylococcus intermedius #2357, NA: no activity.
Setting [13] is: D: Enterococcus faecalis ATCC29212, NA: no activity.
Where [14] appears, read: E: Enterococcus faecium #17501 (vancomycin-resistant), NA: no activity.
The mark [15] stands for this setting: F: Streptococcus pneumoniae #998, NA: no activity.

With `CN(C)CCNc1ccc(C(=O)/C=C/c2ccc(Cl)cc2Cl)cc1` [B022, (E)-3-(2,4-Dichloro-phenyl)-1-[4-(2-dimethylamino-ethylamino)-phenyl]-propenone], in series [1], the “activity against anaerobic bacteria” value was “activity against all microorganisms within the test panel”. This compound registered an IC50 with L. major promastigotes (L. major) of 0.8 µM.
`COc1ccc(/C=C/C(=O)c2ccccc2N(C)CCN(C)C)cc1` [B023, (E)-1-{2-[(2-Dimethylamino-ethyl)-methyl-amino]-phenyl}-3-(4-methoxy-phenyl)-propenone] had a Solubility in series [2] of 30600 µg/mL (≈ 90.4 mM).
Turning to `CCCCN(CCCC)c1cccc(/C=C/C(=O)c2ccccc2NCCCN(C)C)c1` [B033, (E)-3-(3-Dibutylamino-phenyl)-1-[2-(3-dimethylamino-propylamino)-phenyl]-propenone], the “activity against anaerobic bacteria” value in [1] was “activity against all microorganisms within the test panel”.
Same read-out and setting: under `CCCN(CCC)c1cccc(/C=C/C(=O)c2ccccc2NCCN(C)C)c1` [B035, (E)-1-[2-(2-Dimethylamino-ethylamino)-phenyl]-3-(3-dipropylamino-phenyl)-propenone] stands “activity against all microorganisms within the test panel”; under `CCCCN(CCCC)c1ccc(OC)c(/C=C/C(=O)c2ccccc2NCCN(C)C)c1` [B038, (E)-3-(5-Dibutylamino-2-methoxy-phenyl)-1-[2-(2-dimethylamino-ethylamino)-phenyl]-propenone], “activity against all microorganisms within the test panel”.
Take `CN(C)CCNc1cccc(C(=O)/C=C/c2ccc(Cl)cc2Cl)c1` [B039, (E)-3-(2,4-Dichloro-phenyl)-1-[3-(2-dimethylamino-ethylamino)-phenyl]-40 propenone]: in series [1], the “activity against anaerobic bacteria” value is “activity against all microorganisms within the test panel”. In the series with L. major promastigotes (L. major), this compound had an IC50 of 1 µM.
On to `CN(C)CCNc1ccc(C(=O)/C=C/c2cc(C(F)(F)F)cc(C(F)(F)F)c2)cc1` [B046, (E)-3-(3,5-Bis-trifluoromethyl-phenyl)-1-[4-(2-dimethylamino-ethylamino)-phenyl]-propenone], for which, in series [1], the “activity against anaerobic bacteria” value is reported as “activity against all microorganisms within the test panel”.
With `COc1cc(/C=C/C(=O)c2cccc(N(C)CCN(C)C)c2)cc(OC)c1` [B047, (E)-3-(3,5-Dimethoxy-phenyl)-1-{3-[(2-dimethylamino-ethyl)-methyl-amino]-phenyl}-propenone], in the series on L. major promastigotes (Leishmania Major, dose-response curve FIG. 7), the “times more potent than LicA” value is given as 10.
Regarding `COc1ccccc1C(=O)/C=C/c1ccccc1N(C)CCN(C)C` [B056, (E)-3-{2-[(2-Dimethylamino-ethyl)-methyl-amino]-phenyl}-1-(2-methoxy-phenyl)-propenone], in series [2], the Solubility was found to be 3200 µg/mL (≈ 9.45 mM).
Turning to `CCCCc1ccc(/C=C/C(=O)c2ccc(N(C)CCN(C)C)cc2)cc1` [B060, (E)-3-(4-Butyl-phenyl)-1-{4-[(2-dimethylamino-ethyl)-methyl-amino]-phenyl}-propenone], the “activity against anaerobic bacteria” value in series [1] is “activity against all microorganisms within the test panel”.
`CN(C)CCNc1ccc(C(=O)/C=C/c2ccc3ccccc3n2)cc1` [B067, (E)-1-[4-(2-Dimethylamino-ethylamino)-phenyl]-3-quinolin-2-yl-propenone] came in with a concentration for half-maximal inhibition (IC50) in the series on L. major promastigotes (L. major) of 0.9 µM. This counts as sub-micromolar.
For the compound `COc1ccc(-c2ccccc2)cc1/C=C/C(=O)c1ccc(N(C)CCN(C)C)cc1` [B073, (E)-1-{4-[(2-Dimethylamino-ethyl)-methyl-amino]-phenyl}-3-(4-methoxy-biphenyl-3-yl)-propenone], in series [1], the “activity against anaerobic bacteria” value is recorded as “activity against all microorganisms within the test panel”.
On to `COc1ccc(C(=O)/C=C/c2cc(-c3ccccc3OC)ccc2N2CCN(C)CC2)c(F)c1` [B083, (E)-1-(2-Fluoro-4-methoxy-phenyl)-3-[2′-methoxy-4-(4-methyl-piperazin-1-yl)-biphenyl-3-yl]-propenone], for which 0.5 µM corresponded to half-maximal inhibition in the series with L. major promastigotes (L. major) (IC50). Besides, the MIC in series [3] (setting [10]) amounted to 4.7 µM (≈ 2.16 µg/mL); in series [4] (setting [11]), 9.4 µM (≈ 4.33 µg/mL); in series [5] (setting [12]), 9.4 µM (≈ 4.33 µg/mL); in [6] (setting [13]), 18.8 µM (≈ 8.66 µg/mL); in series [7] (setting [14]) it was 9.4 µM (≈ 4.33 µg/mL); in series [8] (setting [15]), 37.5 µM (≈ 17.3 µg/mL). The compound further had an MIC in the series with Eschericia coli ESS of 9.4 µM (≈ 4.33 µg/mL).
On to `CCCCN(CCCC)c1ccc(/C=C/C(=O)c2cccc(NC(=O)CN(C)C)c2)cc1` [B089, (E)-N-{3-[3-(4-Dibutylamino-phenyl)-acryloyl]-phenyl}-2-dimethylamino-acetamide], for which the MIC turned out to be 4.7 µM (≈ 2.05 µg/mL) in series [3] (Staphylococcus aureus, ATCC29213); 4.7 µM (≈ 2.05 µg/mL) in [4] (Staphylococcus aureus, ATCC33591); 4.7 µM (≈ 2.05 µg/mL) in [5] (Staphylococcus intermedius); 9.4 µM (≈ 4.09 µg/mL) in series [6] (Enterococcus faecalis, ATCC29212); 9.4 µM (≈ 4.09 µg/mL) in series [7] (Enterococcus faecium); 37.5 µM (≈ 16.3 µg/mL) in series [8] (Streptococcus pneumoniae).
In the case of `COc1ccccc1-c1ccc(/C=C/C(=O)c2ccccc2CN(C)C)c(N2CCN(C)CC2)c1` [B096, (E)-1-(2-Dimethylaminomethyl-phenyl)-3-[2′-methoxy-3-(4-methyl-piperazin-1-yl)-biphenyl-4-yl]-propenone], the IC50 with L. major promastigotes (L. major) was 1.2 µM.
As for `Cc1cc(C)cc(-c2ccc(N(C)CCN(C)C)c(/C=C/C(=O)c3cccc(NCCN(C)C)c3)c2)c1` [B113, (E)-1-[3-(2-Dimethylamino-ethylamino)-phenyl]-3-{4-[(2-dimethylamino-ethyl)-methyl-amino]-3′,5′-dimethyl-biphenyl-3-yl}-propenone], in series [9], the “Metabolic turn-over in vitro” value is on record as 4%.
`COc1ccc(C(=O)/C=C/c2cc(-c3cc(C)cc(C)c3)ccc2N(C)CCN(C)C)c(CN(C)C)c1` [B114, (E)-3-{4-[(2-Dimethylamino-ethyl)-methyl-amino]-3′,5′-dimethyl-biphenyl-3-yl}-1-(2-dimethylaminomethyl-4-methoxy-phenyl)-propenone] yielded a Solubility in [2] of 4300 µg/mL (≈ 8.61 mM).
Compound `CN(C)Cc1ccccc1C(=O)/C=C/c1cc(N2CCN(C)CC2)ccc1Br` [B124, (E)-3-[2-Bromo-5-(4-methyl-piperazin-1-yl)-phenyl]-1-(2-dimethylaminomethyl-phenyl)-propenone] registered a Solubility in series [2] of 2000 µg/mL (≈ 4.52 mM). This Solubility is about 2.1-fold lower than that of the compound before.
Still for that read-out and setting: in the case of `CN(C)CCCNc1cc(Br)cc(/C=C/C(=O)c2ccccc2CN(C)C)c1` [B126, (E)-3-[3-Bromo-5-(3-dimethylamino-propylamino)-phenyl]-1-(2-dimethylaminomethyl-phenyl)-propenone] it was 8300 µg/mL (≈ 18.7 mM).
Take `COc1ccc(C(=O)/C=C/c2cc(-c3cc(C)cc(C)c3)ccc2N2CCN(C)CC2)c(F)c1` [B182, (E)-3-[3′,5′-Dimethyl-4-(4-methyl-piperazin-1-yl)-biphenyl-3-yl]-1-(2-fluoro-4-methoxy-phenyl)-propenone]: the “Metabolic turn-over in vitro” value in [9] stood at 2%. In addition, the MIC in [3] (setting [10]) is 4.7 µM (≈ 2.16 µg/mL); in series [4] (setting [11]), 4.7 µM (≈ 2.16 µg/mL); in [5] (setting [12]), 4.7 µM (≈ 2.16 µg/mL); in series [6] (setting [13]), 9.4 µM (≈ 4.31 µg/mL); in series [7] (setting [14]), 4.7 µM (≈ 2.16 µg/mL); in series [8] (setting [15]) it was 18.8 µM (≈ 8.62 µg/mL). The compound further showed an MIC against Eschericia coli ESS of 75 µM (≈ 34.4 µg/mL).
Turning to `COc1ccccc1-c1ccc(N2CCN(C)CC2)c(/C=C/C(=O)c2ccccc2NS(=O)(=O)c2ccccc2)c1` [B185, (E)-N-(2-{3-[2′-Methoxy-4-(4-methyl-piperazin-1-yl)-biphenyl-3-yl]-acryloyl}-phenyl)-benzenesulfonamide], the “Metabolic turn-over in vitro” value in [9] is 0%. The midpoint of inhibition in the series on L. major promastigotes (Leishmania major), the IC50, lay at 0.2 µM.
With `COc1ccccc1-c1ccc(/C=C/C(=O)c2ccccc2CN(C)CCN(C)C)c(N2CCN(C)CC2)c1` [B216, (E)-1-(2-{[(2-Dimethylamino-ethyl)-methyl-amino]-methyl}-phenyl)-3-[2′-methoxy-3-(4-methyl-piperazin-1-yl)-biphenyl-4-yl]-propenone], the “Metabolic turn-over in vitro” value in series [9] is recorded as 6%.
